The kinase profiling compilation of Christmann-Franck et al. (2016)

Key:
Experiment in all cases: radiometric filter-binding kinase assay
PIM3 (human) = PIM3 (human) (UniProt Q86V86)
STK3 (human) = STK3 (human) (UniProt Q13188)
TBK1 (human) = TBK1 (human) (UniProt Q9UHD2)
CHEK1 (human) = CHEK1 (human) (UniProt O14757)
DAPK1 (human) = DAPK1 (human) (UniProt P53355)
MAPK8 (human) = MAPK8 (human) (UniProt P45983)
FGFR1 (human) = FGFR1 (human) (UniProt P11362)
GCK (human) = GCK (human) (UniProt Q12851)
TAOK1 (human) = TAOK1 (human) (UniProt Q7L7X3)
MINK1 (human) = MINK1 (human) (UniProt Q8N4C8)
CLK2 (human) = CLK2 (human) (UniProt P49760)
MKNK1 (human) = MKNK1 (human) (UniProt Q9BUB5)
IGF1R (human) = IGF1R (human) (UniProt P08069)
BRSK2 (human) = BRSK2 (human) (UniProt Q8IWQ3)
MAPK11 (human) = MAPK11 (human) (UniProt Q15759)
Chain of MAPK11 (human) (Q15759 whole entry, looked up): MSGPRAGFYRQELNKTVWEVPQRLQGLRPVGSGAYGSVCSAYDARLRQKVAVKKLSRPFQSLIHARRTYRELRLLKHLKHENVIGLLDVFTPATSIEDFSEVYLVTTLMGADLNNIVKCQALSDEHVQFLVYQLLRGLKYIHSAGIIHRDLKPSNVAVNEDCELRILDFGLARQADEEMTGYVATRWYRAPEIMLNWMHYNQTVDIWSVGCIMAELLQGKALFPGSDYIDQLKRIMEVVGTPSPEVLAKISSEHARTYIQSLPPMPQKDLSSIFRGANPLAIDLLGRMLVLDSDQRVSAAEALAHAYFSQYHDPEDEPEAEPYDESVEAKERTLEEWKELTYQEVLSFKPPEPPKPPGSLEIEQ

MAPK10 (human) = MAPK10 (human) (UniProt P53779)
LCK (mouse) = conditions: accession and sequence are those of the human protein
AURKB (human) = AURKB (human) (UniProt Q96GD4)
Chain of AURKB (human) (Q96GD4 whole entry, looked up): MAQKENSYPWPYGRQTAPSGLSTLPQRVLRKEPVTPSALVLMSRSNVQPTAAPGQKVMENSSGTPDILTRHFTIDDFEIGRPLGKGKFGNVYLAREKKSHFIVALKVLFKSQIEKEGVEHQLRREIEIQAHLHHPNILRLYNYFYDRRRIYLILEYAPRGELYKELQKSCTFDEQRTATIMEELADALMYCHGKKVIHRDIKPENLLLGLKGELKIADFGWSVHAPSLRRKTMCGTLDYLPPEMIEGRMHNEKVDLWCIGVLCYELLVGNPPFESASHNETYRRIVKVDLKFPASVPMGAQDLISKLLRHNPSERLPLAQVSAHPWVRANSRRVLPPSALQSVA

[1] = test system: SGK1 (human), O00141 [S422D]
MAPK13 (human) = MAPK13 (human) (UniProt O15264)
Chain of MAPK13 (human) (O15264 whole entry, looked up): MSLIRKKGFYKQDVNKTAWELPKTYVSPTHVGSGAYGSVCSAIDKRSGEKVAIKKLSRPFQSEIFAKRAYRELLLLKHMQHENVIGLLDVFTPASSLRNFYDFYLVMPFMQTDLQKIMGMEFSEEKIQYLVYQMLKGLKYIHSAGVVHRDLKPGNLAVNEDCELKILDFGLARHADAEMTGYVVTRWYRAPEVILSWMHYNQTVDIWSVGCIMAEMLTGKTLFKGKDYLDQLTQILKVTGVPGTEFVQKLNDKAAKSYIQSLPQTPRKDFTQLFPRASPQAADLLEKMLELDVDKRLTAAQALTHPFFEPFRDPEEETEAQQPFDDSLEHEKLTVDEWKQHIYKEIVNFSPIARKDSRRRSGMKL

HIPK1 (human) = HIPK1 (human) (UniProt Q86Z02)
CAMKK2 (human) = CAMKK2 (human) (UniProt Q96RR4)
PHKG1 (human) = PHKG1 (human) (UniProt Q16816)
YES1 (human) = YES1 (human) (UniProt P07947)
[2] = test system: PAK2 (human), Q13177 [T402E]
MARK3 (human) = MARK3 (human) (UniProt P27448)
DYRK1A (human) = DYRK1A (human) (UniProt Q13627)
CSNK2A1 (human) = CSNK2A1 (human) (UniProt P68400)
HIPK2 (human) = HIPK2 (human) (UniProt Q9H2X6)
Chain of HIPK2 (human) (Q9H2X6 whole entry, looked up): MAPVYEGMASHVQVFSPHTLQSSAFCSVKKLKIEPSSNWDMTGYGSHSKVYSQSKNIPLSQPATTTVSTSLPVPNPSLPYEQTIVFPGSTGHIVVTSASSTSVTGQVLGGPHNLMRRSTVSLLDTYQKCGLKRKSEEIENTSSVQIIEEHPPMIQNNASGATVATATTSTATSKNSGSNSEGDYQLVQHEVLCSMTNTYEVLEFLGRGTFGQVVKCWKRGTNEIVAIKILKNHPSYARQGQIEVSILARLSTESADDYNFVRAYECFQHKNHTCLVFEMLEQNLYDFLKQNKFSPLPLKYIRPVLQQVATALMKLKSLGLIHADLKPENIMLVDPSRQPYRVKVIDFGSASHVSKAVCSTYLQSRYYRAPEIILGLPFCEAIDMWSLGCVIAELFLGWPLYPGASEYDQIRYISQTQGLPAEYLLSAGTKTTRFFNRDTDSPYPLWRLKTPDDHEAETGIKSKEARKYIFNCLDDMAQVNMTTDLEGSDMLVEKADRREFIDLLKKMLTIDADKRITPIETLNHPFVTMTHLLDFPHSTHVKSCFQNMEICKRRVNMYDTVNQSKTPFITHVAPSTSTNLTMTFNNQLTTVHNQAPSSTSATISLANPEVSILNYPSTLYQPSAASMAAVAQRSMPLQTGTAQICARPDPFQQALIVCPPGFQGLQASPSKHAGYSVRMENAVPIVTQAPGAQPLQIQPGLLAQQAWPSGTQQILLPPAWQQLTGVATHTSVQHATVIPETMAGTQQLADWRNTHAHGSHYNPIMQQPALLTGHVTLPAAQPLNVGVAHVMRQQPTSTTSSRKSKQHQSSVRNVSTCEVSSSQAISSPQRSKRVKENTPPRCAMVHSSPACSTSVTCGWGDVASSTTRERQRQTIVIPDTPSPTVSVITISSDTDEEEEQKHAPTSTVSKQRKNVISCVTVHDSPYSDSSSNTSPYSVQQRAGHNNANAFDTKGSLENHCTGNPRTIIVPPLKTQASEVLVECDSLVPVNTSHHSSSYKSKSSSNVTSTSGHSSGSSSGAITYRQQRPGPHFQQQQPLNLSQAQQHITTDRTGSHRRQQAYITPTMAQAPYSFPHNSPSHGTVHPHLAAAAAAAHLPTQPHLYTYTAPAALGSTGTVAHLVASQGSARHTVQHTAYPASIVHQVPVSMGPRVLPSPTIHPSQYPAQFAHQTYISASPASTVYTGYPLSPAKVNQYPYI

JAK2 JH1 JH2 (human) = JAK2 JH1 JH2 (human) (UniProt O60674)
DYRK3 (human) = DYRK3 (human) (UniProt O43781)
EPHB2 (human) = EPHB2 (human) (UniProt P29323)
ROCK2 (rat) = conditions: accession and sequence are those of the human protein
SRPK1 (human) = SRPK1 (human) (UniProt Q96SB4)
MAPKAPK5 (human) = MAPKAPK5 (human) (UniProt Q8IW41)
Chain of MAPKAPK5 (human) (Q8IW41 whole entry, looked up): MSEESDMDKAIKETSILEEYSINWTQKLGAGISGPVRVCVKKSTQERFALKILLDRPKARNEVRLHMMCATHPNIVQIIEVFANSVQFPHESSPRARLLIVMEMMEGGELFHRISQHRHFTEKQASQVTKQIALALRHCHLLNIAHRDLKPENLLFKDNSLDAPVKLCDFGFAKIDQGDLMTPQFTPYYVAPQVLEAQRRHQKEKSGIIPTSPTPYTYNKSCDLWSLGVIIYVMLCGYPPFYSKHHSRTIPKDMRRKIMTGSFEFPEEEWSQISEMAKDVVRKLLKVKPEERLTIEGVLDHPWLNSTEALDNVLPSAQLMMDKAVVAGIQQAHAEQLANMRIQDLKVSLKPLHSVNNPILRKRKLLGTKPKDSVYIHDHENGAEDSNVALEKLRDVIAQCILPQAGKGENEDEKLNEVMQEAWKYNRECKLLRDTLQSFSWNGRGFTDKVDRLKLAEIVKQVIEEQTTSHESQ

CaMK1 (human) = CaMK1 (human) (UniProt Q14012)
Chain of CaMK1 (human) (Q14012 whole entry, looked up): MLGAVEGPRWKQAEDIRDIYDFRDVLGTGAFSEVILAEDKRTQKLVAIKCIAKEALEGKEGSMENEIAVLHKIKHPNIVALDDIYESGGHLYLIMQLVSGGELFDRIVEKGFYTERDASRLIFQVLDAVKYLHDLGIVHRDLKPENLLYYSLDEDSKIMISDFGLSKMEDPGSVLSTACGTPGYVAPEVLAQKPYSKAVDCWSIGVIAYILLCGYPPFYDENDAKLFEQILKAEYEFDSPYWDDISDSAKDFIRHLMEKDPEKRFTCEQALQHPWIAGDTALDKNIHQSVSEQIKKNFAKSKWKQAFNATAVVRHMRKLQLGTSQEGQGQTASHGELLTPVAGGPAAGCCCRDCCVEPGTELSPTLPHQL

Chain of FGFR1 (human) (P11362 whole entry, looked up): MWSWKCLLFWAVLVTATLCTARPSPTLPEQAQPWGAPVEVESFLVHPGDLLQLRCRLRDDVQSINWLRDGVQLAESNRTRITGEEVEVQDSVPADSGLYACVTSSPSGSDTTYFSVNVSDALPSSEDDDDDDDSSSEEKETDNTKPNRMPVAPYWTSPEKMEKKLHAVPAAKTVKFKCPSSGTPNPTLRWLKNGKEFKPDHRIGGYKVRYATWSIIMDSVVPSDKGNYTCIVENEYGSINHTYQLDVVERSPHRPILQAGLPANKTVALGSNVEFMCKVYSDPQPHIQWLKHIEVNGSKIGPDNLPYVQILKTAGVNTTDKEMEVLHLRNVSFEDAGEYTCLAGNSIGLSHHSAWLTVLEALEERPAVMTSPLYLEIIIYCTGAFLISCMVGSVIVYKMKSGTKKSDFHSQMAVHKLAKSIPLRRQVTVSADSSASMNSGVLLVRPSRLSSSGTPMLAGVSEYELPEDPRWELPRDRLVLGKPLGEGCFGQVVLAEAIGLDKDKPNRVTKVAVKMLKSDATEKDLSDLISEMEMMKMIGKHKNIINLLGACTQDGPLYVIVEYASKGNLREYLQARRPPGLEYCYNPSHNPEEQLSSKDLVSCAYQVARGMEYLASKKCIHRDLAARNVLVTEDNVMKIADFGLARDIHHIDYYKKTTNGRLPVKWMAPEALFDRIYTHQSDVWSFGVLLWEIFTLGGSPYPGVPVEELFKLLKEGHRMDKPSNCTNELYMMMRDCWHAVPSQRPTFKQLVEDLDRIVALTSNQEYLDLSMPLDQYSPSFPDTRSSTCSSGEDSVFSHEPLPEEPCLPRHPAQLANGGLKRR
Chain of TBK1 (human) (Q9UHD2 whole entry, looked up): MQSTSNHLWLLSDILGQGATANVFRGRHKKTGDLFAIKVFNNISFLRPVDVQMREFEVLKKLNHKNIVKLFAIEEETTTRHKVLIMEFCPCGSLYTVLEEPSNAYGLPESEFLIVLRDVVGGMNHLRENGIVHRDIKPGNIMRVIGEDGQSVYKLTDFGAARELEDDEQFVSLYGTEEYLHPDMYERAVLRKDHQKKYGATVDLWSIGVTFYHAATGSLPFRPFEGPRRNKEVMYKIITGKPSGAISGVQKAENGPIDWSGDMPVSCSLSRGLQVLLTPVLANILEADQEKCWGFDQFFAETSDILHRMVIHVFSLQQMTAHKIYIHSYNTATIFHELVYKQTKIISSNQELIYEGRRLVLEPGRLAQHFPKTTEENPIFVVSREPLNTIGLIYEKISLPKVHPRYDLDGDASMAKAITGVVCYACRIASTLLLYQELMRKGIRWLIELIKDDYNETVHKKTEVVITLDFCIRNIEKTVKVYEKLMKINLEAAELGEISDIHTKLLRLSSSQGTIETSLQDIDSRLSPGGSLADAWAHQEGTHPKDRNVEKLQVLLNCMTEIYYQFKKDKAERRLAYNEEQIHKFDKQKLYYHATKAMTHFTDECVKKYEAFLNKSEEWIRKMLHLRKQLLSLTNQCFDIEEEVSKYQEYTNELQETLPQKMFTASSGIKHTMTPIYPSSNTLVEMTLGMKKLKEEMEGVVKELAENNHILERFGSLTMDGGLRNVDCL

For `Oc1ccc2ccccc2c1SSc1c(O)ccc2ccccc12`, which residual activity (PIM3 (human); compound 1.0 µM) is on record?
Its residual activity is 76%.

And the residual activity (PIM3 (human); compound 5.0 µM)?
The residual activity was 17%.

And the residual activity (PIM3 (human); compound 10.0 µM)?
The residual activity was 58%.

And the residual activity (STK3 (human); compound 1.0 µM)?
Its residual activity is 5%.

And the residual activity (STK3 (human); compound 5.0 µM)?
The residual activity was 6%.

And the residual activity (STK3 (human); compound 10.0 µM)?
Its residual activity is 51%.

What about the residual activity (TBK1 (human); compound 1.0 µM) of the same compound?
The residual activity was 59%.

And the residual activity (TBK1 (human); compound 5.0 µM)?
Its residual activity is 22%.

And the residual activity (TBK1 (human); compound 10.0 µM)?
Its residual activity is 77%.

And the residual activity (CHEK1 (human); compound 1.0 µM)?
Its residual activity is 89%.

And the residual activity (CHEK1 (human); compound 5.0 µM)?
The residual activity was 88%.

What about the residual activity (CHEK1 (human); compound 10.0 µM) of the same compound?
Its residual activity is 88%.

And the residual activity (DAPK1 (human); compound 1.0 µM)?
The residual activity was 101%.

What about the residual activity (DAPK1 (human); compound 5.0 µM) of the same compound?
Its residual activity is 83%.

And the residual activity (MAPK8 (human); compound 1.0 µM)?
The residual activity was 99%.

And the residual activity (MAPK8 (human); compound 5.0 µM)?
Its residual activity is 76%.

What about the residual activity (MAPK8 (human); compound 10.0 µM) of the same compound?
Its residual activity is 89%.

And the residual activity (FGFR1 (human); compound 1.0 µM)?
Its residual activity is 24%.

What about the residual activity (FGFR1 (human); compound 5.0 µM) of the same compound?
Its residual activity is 4%.

And the residual activity (FGFR1 (human); compound 10.0 µM)?
The residual activity was 29%.

What about the residual activity (GCK (human); compound 1.0 µM) of the same compound?
The residual activity was 30%.

What about the residual activity (GCK (human); compound 5.0 µM) of the same compound?
The residual activity was 2%.

And the residual activity (TAOK1 (human); compound 1.0 µM)?
The residual activity was 103%.

What about the residual activity (TAOK1 (human); compound 5.0 µM) of the same compound?
The residual activity was 102%.

What about the residual activity (MINK1 (human); compound 1.0 µM) of the same compound?
Its residual activity is 3%.

What about the residual activity (MINK1 (human); compound 5.0 µM) of the same compound?
Its residual activity is 1%.

And the residual activity (CLK2 (human); compound 1.0 µM)?
The residual activity was 77%.

What about the residual activity (CLK2 (human); compound 5.0 µM) of the same compound?
The residual activity was 48%.

What about the residual activity (MKNK1 (human); compound 1.0 µM) of the same compound?
The residual activity was 88%.

And the residual activity (MKNK1 (human); compound 5.0 µM)?
The residual activity was 76%.

And the residual activity (MKNK1 (human); compound 10.0 µM)?
Its residual activity is 100%.

What about the residual activity (IGF1R (human); compound 1.0 µM) of the same compound?
Its residual activity is 87%.

What about the residual activity (IGF1R (human); compound 5.0 µM) of the same compound?
Its residual activity is 94%.

What about the residual activity (IGF1R (human); compound 10.0 µM) of the same compound?
Its residual activity is 84%.

And the residual activity (BRSK2 (human); compound 1.0 µM)?
Its residual activity is 39%.

What about the residual activity (BRSK2 (human); compound 5.0 µM) of the same compound?
The residual activity was 14%.

What about the residual activity (BRSK2 (human); compound 10.0 µM) of the same compound?
The residual activity was 48%.

What about the residual activity (MAPK11 (human); compound 1.0 µM) of the same compound?
The residual activity was 114%.

What about the residual activity (MAPK11 (human); compound 5.0 µM) of the same compound?
Its residual activity is 112%.

What about the residual activity (MAPK11 (human); compound 10.0 µM) of the same compound?
The residual activity was 117%.

And the residual activity (MAPK10 (human); compound 1.0 µM)?
Its residual activity is 106%.

What about the residual activity (MAPK10 (human); compound 5.0 µM) of the same compound?
Its residual activity is 77%.

What about the residual activity (LCK (mouse); compound 1.0 µM) of the same compound?
The residual activity was 99%.

What about the residual activity (LCK (mouse); compound 5.0 µM) of the same compound?
Its residual activity is 99%.

And the residual activity (LCK (mouse); compound 10.0 µM)?
Its residual activity is 90%.

And the residual activity (AURKB (human); compound 1.0 µM)?
The residual activity was 2%.

What about the residual activity (AURKB (human); compound 5.0 µM) of the same compound?
Its residual activity is 2%.

What about the residual activity (AURKB (human); compound 10.0 µM) of the same compound?
Its residual activity is 5%.

What about the residual activity ([1]; compound 1.0 µM) of the same compound?
The residual activity was 89%.

And the residual activity ([1]; compound 5.0 µM)?
Its residual activity is 48%.

And the residual activity ([1]; compound 10.0 µM)?
The residual activity was 107%.

What about the residual activity (MAPK13 (human); compound 1.0 µM) of the same compound?
Its residual activity is 102%.

And the residual activity (MAPK13 (human); compound 5.0 µM)?
Its residual activity is 102%.

What about the residual activity (MAPK13 (human); compound 10.0 µM) of the same compound?
Its residual activity is 104%.

What about the residual activity (HIPK1 (human); compound 1.0 µM) of the same compound?
Its residual activity is 52%.

What about the residual activity (HIPK1 (human); compound 5.0 µM) of the same compound?
Its residual activity is 48%.

And the residual activity (CAMKK2 (human); compound 1.0 µM)?
The residual activity was 98%.

And the residual activity (CAMKK2 (human); compound 5.0 µM)?
Its residual activity is 49%.

And the residual activity (CAMKK2 (human); compound 10.0 µM)?
The residual activity was 90%.

And the residual activity (PHKG1 (human); compound 1.0 µM)?
Its residual activity is 100%.

What about the residual activity (PHKG1 (human); compound 5.0 µM) of the same compound?
Its residual activity is 103%.

And the residual activity (PHKG1 (human); compound 10.0 µM)?
The residual activity was 108%.

What about the residual activity (YES1 (human); compound 1.0 µM) of the same compound?
The residual activity was 59%.

And the residual activity (YES1 (human); compound 5.0 µM)?
The residual activity was 34%.

And the residual activity (YES1 (human); compound 10.0 µM)?
Its residual activity is 60%.

And the residual activity ([2]; compound 1.0 µM)?
Its residual activity is 5%.

What about the residual activity ([2]; compound 5.0 µM) of the same compound?
Its residual activity is 2%.

And the residual activity (MARK3 (human); compound 1.0 µM)?
Its residual activity is 81%.

And the residual activity (MARK3 (human); compound 5.0 µM)?
Its residual activity is 63%.

What about the residual activity (MARK3 (human); compound 10.0 µM) of the same compound?
Its residual activity is 69%.

What about the residual activity (DYRK1A (human); compound 1.0 µM) of the same compound?
Its residual activity is 47%.

What about the residual activity (DYRK1A (human); compound 5.0 µM) of the same compound?
Its residual activity is 19%.

What about the residual activity (DYRK1A (human); compound 10.0 µM) of the same compound?
Its residual activity is 83%.

And the residual activity (CSNK2A1 (human); compound 1.0 µM)?
Its residual activity is 104%.

What about the residual activity (CSNK2A1 (human); compound 5.0 µM) of the same compound?
The residual activity was 97%.

What about the residual activity (CSNK2A1 (human); compound 10.0 µM) of the same compound?
Its residual activity is 127%.

What about the residual activity (HIPK2 (human); compound 1.0 µM) of the same compound?
The residual activity was 24%.

What about the residual activity (HIPK2 (human); compound 5.0 µM) of the same compound?
Its residual activity is 15%.

What about the residual activity (HIPK2 (human); compound 10.0 µM) of the same compound?
Its residual activity is 73%.

What about the residual activity (JAK2 JH1 JH2 (human); compound 1.0 µM) of the same compound?
The residual activity was 72%.

And the residual activity (JAK2 JH1 JH2 (human); compound 5.0 µM)?
The residual activity was 34%.

And the residual activity (DYRK3 (human); compound 1.0 µM)?
Its residual activity is 54%.

What about the residual activity (DYRK3 (human); compound 5.0 µM) of the same compound?
Its residual activity is 33%.

And the residual activity (DYRK3 (human); compound 10.0 µM)?
Its residual activity is 74%.

What about the residual activity (EPHB2 (human); compound 1.0 µM) of the same compound?
Its residual activity is 137%.

What about the residual activity (EPHB2 (human); compound 5.0 µM) of the same compound?
The residual activity was 169%.

And the residual activity (ROCK2 (rat); compound 1.0 µM)?
Its residual activity is 95%.

What about the residual activity (ROCK2 (rat); compound 5.0 µM) of the same compound?
The residual activity was 87%.

And the residual activity (ROCK2 (rat); compound 10.0 µM)?
Its residual activity is 78%.

And the residual activity (SRPK1 (human); compound 1.0 µM)?
The residual activity was 62%.

What about the residual activity (SRPK1 (human); compound 5.0 µM) of the same compound?
The residual activity was 47%.

What about the residual activity (SRPK1 (human); compound 10.0 µM) of the same compound?
Its residual activity is 84%.

And the residual activity (MAPKAPK5 (human); compound 1.0 µM)?
The residual activity was 86%.

And the residual activity (MAPKAPK5 (human); compound 5.0 µM)?
Its residual activity is 46%.

What about the residual activity (MAPKAPK5 (human); compound 10.0 µM) of the same compound?
The residual activity was 102%.

What about the residual activity (CaMK1 (human); compound 1.0 µM) of the same compound?
The residual activity was 6%.

And the residual activity (CaMK1 (human); compound 5.0 µM)?
The residual activity was 3%.

And the residual activity (CaMK1 (human); compound 10.0 µM)?
Its residual activity is 7%.
